Test system: human mesenchymal stem cells (MeSCs)
Test: Cardiac differentiation of human MeSCs in co-culture with cardiomyocytes (H9c2), RT-PCR with cardiac specific primers
Type: cell-based
Conditions: BrdU and/or 5-azaC 1-10 uM for 3 weeks, or nanog vector transfection; then co-culture with cardiomyocytes
Excerpt: Cardiac differentiation of human mesenchymal stem cells (MeSCs) is achieved through treatment with nucleotide derivatives BrdU and 5-azaC and/or forced expression of embryonic stem cell gene nanog. Following treatment, cells were placed in a co-culture with cardiac cells (cardiomyocyte cell line H9c2). Human MeSCs plated in 6-well culture plates and expanded in serum-DMEM (Delbecco's Modified Eagle's Medium) containing 10% MeSC formulated fetal bovine serum (FBS, Stem Cell, Inc) containing antibiotics/antimycotics. MeSCs were treated with varying concentrations (1-10 uM) of BrdU and/or 5-azaC for 3 weeks or transfected with mammalian expression vector containing a nanog encoding sequence. Cell media was changed every three days prior to co-culture with cardiomyocytes. Cardiomyocytes were expanded and grown to near confluence in serum-DMEM with 10% non-conditioned FBS and antibiotics/antimycotics. To differentiate cardiac cells, serum media was replaced with plain DMEM containing only antibiotics and allowed to differentiate. Co-cultures were created by combining MeSCs with cardiac cells and culturing in cardiac media. Following co-culture, cells were treated with TRIzol and gene expression was assessed using RT-PCR and cardiac specific primers. […]

Compound	expression of cardiac specific genes (RT-PCR, gel electrophoresis)
Nc1ncn([C@@H]2O[C@H](CO)[C@@H](O)[C@H]2O)c(=O)n1 [5-azaC]	expression of cardiac specific genes
O=c1[nH]c(=O)n([C@H]2C[C@H](O)[C@@H](CO)O2)cc1Br [BrdU]	expression of cardiac specific genes

From patent US9506031B2, “Methods and materials for increasing potency of cells” (University of Central Florida Research Foundation, Inc., priority 2004, dated 2016)
